How the values were obtained:
Conditions in all cases: incubation time: 72 h
SK-BR-3 = experiment: normalised response (% of control), CellTiter-Glo; higher = more viable cells (100 = DMSO, 0 = benzethonium chloride kill control)
Method: (§1)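 DSRT, 72 h incubation, CellTox Green / CellTiter-Glo readout. Signal is normalised to DMSO and benzethonium chloride controls. Value is the normalised response at dose 3.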

MDA-MB-453 [1] = experiment: as above
Method: as §1

CAL-51 [2] = experiment: as above
Method: as §1

HCC1143 [3] = experiment: as above
Method: as §1

MFM-223 [4] = experiment: as above
Method: as §1

MCF-10A [5] = experiment: as above
Method: as §1

HCC1937 [6] = experiment: as above
Method: as §1

Hs578T [7] = experiment: as above
Method: as §1

HDQ-P1 [8] = experiment: as above
Method: as §1

MDA-MB-436 [9] = experiment: as above
Method: as §1

DU-4475 [10] = experiment: as above
Method: as §1

CAL-85-1 [11] = experiment: as above
Method: as §1

CAL-148 [12] = experiment: as above
Method: as §1

BT-549 [13] = experiment: as above
Method: as §1

HCC1599 [14] = experiment: as above
Method: as §1

BT-474 [15] = experiment: as above
Method: as §1

MDA-MB-468 [16] = experiment: as above
Method: as §1

MDA-MB-231 [17] = experiment: as above
Method: as §1

CAL-120 [18] = experiment: as above
Method: as §1

MDA-MB-453 [19] = experiment: normalised response (% of control), CellTox Green; higher = less cell death (100 = DMSO, 0 = benzethonium chloride kill control)
Outline: (§2)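 Normalised signals at single concentrations make up the values. They come from breast cancer cell lines seeded (20 µl suspension) into 384-well plates with compound at 5 concentrations in 10-fold steps over a compound-specific 10,000-fold range, incubated 72 h, and read for CellTox Green fluorescence then CellTiter-Glo luminescence. Each plate was normalised to 0.1 % DMSO (100) and a positive kill control (0).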

CAL-51 [20] = experiment: as above
Outline: as §2

HCC1143 [21] = experiment: as above
Outline: as §2

MFM-223 [22] = experiment: as above
Outline: as §2

MCF-10A [23] = experiment: as above
Outline: as §2

HDQ-P1 [24] = experiment: as above
Outline: as §2

MDA-MB-436 [25] = experiment: as above
Outline: as §2

DU-4475 [26] = experiment: as above
Outline: as §2

CAL-85-1 [27] = experiment: as above
Outline: as §2

CAL-148 [28] = experiment: as above
Outline: as §2

BT-549 [29] = experiment: as above
Outline: as §2

HCC1599 [30] = experiment: as above
Outline: as §2

BT-474 [31] = experiment: as above
Outline: as §2

MDA-MB-468 [32] = experiment: as above
Outline: as §2

MDA-MB-231 [33] = experiment: as above
Outline: as §2

CAL-120 [34] = experiment: as above
Outline: as §2

HCC1937 [35] = experiment: as above
Outline: as §2

Hs578T [36] = experiment: as above
Outline: as §2

| Compound | normalised response (SK-BR-3) [%] | normalised response (MDA-MB-453 [1]) [%] | normalised response (CAL-51 [2]) [%] | normalised response (HCC1143 [3]) [%] | normalised response (MFM-223 [4]) [%] | normalised response (MCF-10A [5]) [%] | normalised response (HCC1937 [6]) [%] | normalised response (Hs578T [7]) [%] | normalised response (HDQ-P1 [8]) [%] | normalised response (MDA-MB-436 [9]) [%] | normalised response (DU-4475 [10]) [%] | normalised response (CAL-85-1 [11]) [%] | normalised response (CAL-148 [12]) [%] | normalised response (BT-549 [13]) [%] | normalised response (HCC1599 [14]) [%] | normalised response (BT-474 [15]) [%] | normalised response (MDA-MB-468 [16]) [%] | normalised response (MDA-MB-231 [17]) [%] | normalised response (CAL-120 [18]) [%] | normalised response (MDA-MB-453 [19]) [%] | normalised response (CAL-51 [20]) [%] | normalised response (HCC1143 [21]) [%] | normalised response (MFM-223 [22]) [%] | normalised response (MCF-10A [23]) [%] | normalised response (HDQ-P1 [24]) [%] | normalised response (MDA-MB-436 [25]) [%] | normalised response (DU-4475 [26]) [%] | normalised response (CAL-85-1 [27]) [%] | normalised response (CAL-148 [28]) [%] | normalised response (BT-549 [29]) [%] | normalised response (HCC1599 [30]) [%] | normalised response (BT-474 [31]) [%] | normalised response (MDA-MB-468 [32]) [%] | normalised response (MDA-MB-231 [33]) [%] | normalised response (CAL-120 [34]) [%] | normalised response (HCC1937 [35]) [%] | normalised response (Hs578T [36]) [%] |
| --- | --- | --- | --- | --- | --- | --- | --- | --- | --- | --- | --- | --- | --- | --- | --- | --- | --- | --- | --- | --- | --- | --- | --- | --- | --- | --- | --- | --- | --- | --- | --- | --- | --- | --- | --- | --- | --- |
| CCc1cncnc1N1CCN(Cc2nc3ccc(C(F)(F)F)cc3[nH]2)CC1 (100 nM) | 107 | 106 | 88.2 | 107 | 110 | 108 | 98.6 | 109 | 97.7 | 108 | 106 | 95.8 | 116 | 92.9 | 99.9 | 105 | 106 | 110 | 109 | 87.5 | 86.3 | 118 | 106 | 86.4 | 96 | 99.8 | 101 | 99.3 | 108 | 83.3 | 99.1 | 97.9 | 108 | 105 | 96 |  |  |
| O=C(O)CCCCC(CCSCc1ccccc1)SCc1ccccc1 (stereo not drawn) [CPI-613] (100 nM) | 104 | 104 | 61.4 | 106 | 106 | 107 | 101 | 99.6 | 99 | 101 | 101 | 96.4 | 108 | 105 | 114 | 106 | 102 | 107 | 98.9 | 101 | 75.1 | 73.1 | 64.3 | 104 | 107 |  | 101 | 104 | 104 | 96.5 | 95.4 | 93.3 | 122 | 51.4 | 102 | 103 | 105 |
| N#Cc1ccc(C(c2ccc(C#N)cc2)n2cncn2)cc1 [Letrozole] (100 nM) | 102 | 101 | 104 | 104 | 106 | 103 | 94.2 | 105 | 96.7 | 105 | 102 | 103 | 97.2 | 104 | 95.9 | 95.5 | 94.5 | 101 | 99.8 | 100 | 103 | 108 | 94.5 | 105 | 53.6 |  | 101 | 114 | 87.3 | 96.3 | 102 | 93.5 |  | 79 | 91.1 | 83.5 | 75.3 |
| O=C(O)C(=O)O.[NH-][C@@H]1CCCC[C@H]1[NH-].[Pt+2] [Oxaliplatin] (100 nM) | 84.8 | 87.5 | 77 | 99 | 94.3 | 97.5 | 93.1 | 97.9 | 104 | 103 | 92.5 | 96.9 | 85.6 | 108 | 93 | 99 | 89.3 | 97.2 | 103 | 97.2 | 84.7 | 89.3 | 76.6 | 70 | 110 |  | 96.8 | 93.8 | 61.1 | 110 | 94.2 | 93 | 110 | 89.6 | 100 | 79.4 |  |
| CC[C@H](C)C(=O)O[C@H]1C[C@H](O)C=C2C=C[C@H](C)[C@H](CC[C@@H](O)C[C@@H](O)CC(=O)O)[C@H]21 [Pravastatin] (100 nM) | 93.6 | 85.9 | 63.4 | 101 | 88.8 | 97.4 | 93.7 | 93.2 | 98 | 13.5 | 95.7 | 99 | 86.3 | 101 | 88.7 | 99.2 | 97.7 | 97.8 | 101 | 98.4 | 73.3 | 79.9 | 98.2 | 99 | 100 | -74.8 | 101 | 97.9 | 88.8 | 103 | 96.2 | 99.2 | 107 | 102 | 97.2 | 95.9 |  |
| COc1cc([C@@H]2c3cc4c(cc3[C@@H](O[C@@H]3O[C@@H]5CO[C@@H](c6cccs6)O[C@H]5[C@H](O)[C@H]3O)[C@H]3COC(=O)[C@H]23)OCO4)cc(OC)c1O [Teniposide] (100 nM) | 58.5 | 118 | 78.5 | 83.2 | 108 | 88.2 | 91.9 | 90 | 96.4 | 62.6 | 69.2 | 91.6 | 74.5 | 68 | 66.7 | 87.8 | 79.3 | 94.3 | 94.7 | 107 | 74.2 | 111 | 99.3 | 83.6 | 102 | 95.1 | 93.6 | 89.4 | 36.3 | 90.5 | 91.3 | 99.7 | 54.9 | 103 | 96 |  |  |
| COc1cc2nccc(Oc3ccc(NC(=O)Nc4cc(C)on4)c(Cl)c3)c2cc1OC [Tivozanib] (100 nM) | 83.3 | 87.7 | 99.6 | 102 | 86.1 | 94.5 | 95.1 | 93.7 | 104 | 91.2 | 98.1 | 99.5 | 88.5 | 106 | 102 | 93 | 93.6 | 96.2 | 94.2 | 97.2 | 108 | 89 | 103 | 96.3 | 94.8 |  | 96.9 | 98.6 | 102 | 109 | 104 | 96 | 110 | 94.9 | 96.9 | 117 |  |
| CC1=C(/C=C/C(C)=C/C=C/C(C)=C/C(=O)O)C(C)(C)CCC1 [Tretinoin] (100 nM) | 79.8 | 108 | 87.7 | 97.4 | 93.7 | 88.7 | 95.8 | 98.5 | 100 | 100 | 98.3 | 97.5 | 91.9 | 102 | 103 | 92.7 | 92 | 102 | 105 | 109 | 102 | 96.3 | 103 | 105 | 108 | 106 | 108 | 102 | 95.3 | 115 | 99.1 | 103 | 159 | 117 | 101 | 92.8 |  |
| COc1cc2c(NC3CCN(C(C)C)CC3)nc(C3CCCCC3)nc2cc1OCCCN1CCCC1 [UNC0638] (100 nM) | 80.1 | 92.7 | 97.3 | 100 | 88.6 | 88 | 92.2 | 97.4 | 97 | 102 | 86.5 | 98.8 | 88 | 101 | 80.8 | 94.1 | 83.8 | 92.2 | 101 | 99.2 | 99.5 | 107 | 102 | 98.3 | 102 | 94.6 | 97.4 | 111 | 96.8 | 63.7 | 101 | 101 | 119 | 102 | 100 |  |  |

— the supplement of paper PMC4862054
